For this test, the target named is T1, human FPRL1 (Homo sapiens, UniProt P25090).
T1 construct: expressed in transfected cells; host or cells: HEK293 (JCRB9068, NIBIO), transient co-transfection with pCMV-script vectors
T1 sequence (P25090 1-351): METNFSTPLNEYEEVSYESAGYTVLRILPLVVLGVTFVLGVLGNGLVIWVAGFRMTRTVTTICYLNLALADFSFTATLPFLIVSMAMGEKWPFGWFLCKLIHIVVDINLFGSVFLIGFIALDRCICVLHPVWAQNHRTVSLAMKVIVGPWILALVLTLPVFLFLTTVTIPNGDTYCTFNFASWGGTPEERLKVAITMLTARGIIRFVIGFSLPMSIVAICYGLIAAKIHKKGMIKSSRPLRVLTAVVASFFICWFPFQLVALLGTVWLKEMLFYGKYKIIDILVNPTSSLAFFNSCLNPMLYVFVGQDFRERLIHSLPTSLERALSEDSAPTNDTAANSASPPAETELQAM
The test can be described thus: Measurement test of agonist activity on human FPRL1 (calcium mobilization in HEK293 cells transfected with human FPRL1 and Gα15). The format is cell-based. Conditions: Fluo-4 NW, molar concentration giving 50% maximum activation, read-out: Efficacy EC50. An excerpt:
Measurement test of agonist activity on human FPRL1
(1-1) Construction of Human FPRL1 Expression Vector
Human FPRL (SEQ ID NO: 3) was amplified in a PCR reaction from cDNA derived from a monocytic leukemia cell line THP-1 (TIB-202, ATCC) as a template using a forward primer shown in SEQ ID NO: 1, a reverse primer shown in SEQ ID NO: 2, and KOD-plus-ver. 2 (KOD-211, TOYOBO CO., LTD.). […] 2 (LGK-201, TOYOBO CO., LTD.). The ligation product was transformed into DH5α (DNA-901, TOYOBO CO., LTD.), cultured on a 100 μg/mL kanamycin-containing LB medium, and purified with HiSpeed Plasmid Maxi Kit (12662, QIAGEN).
(1-2) Construction of Human Gα15 Expression Vector
2. The amplified PCR product and pCMV-script vector were digested with Hind III and XhoI, and the resultant digest was ligated with Ligation high ver. 2. The ligation product was transformed into DH5α, cultured on a 100 μg/mL kanamycin-containing LB medium, and purified with HiSpeed Plasmid Maxi Kit.
(2-1) Method for Culturing and Subculturing HEK293
HEK293 (JCRB9068, NIBIO) was cultured in an incubator at 5% CO2 and 37° C. using DMEM (11885-092, GIBCO) containing 10% FBS and 1cPenicillin-Streptomycin (15140-122, GIBCO).
(2-2) Introduction of Human FPRL1 and Gal5 Expression Vectors
The cells were inoculated in a Collagen Type 1 coated 6-well plate (4810-010, IWAKI) to 5×10^5 cells/2.5 mL/well and cultured overnight. On the next day, human FPRL1 and Gα15 expression vectors were introduced using Lipofectamine 2000 transfection reagent (11668-019, Life technologies). First, the human FPRL1 and Gal5 expression vectors were diluted with Opti-MEM I Reduced Serum Medium (31985-070, GIBCO) to 2 μg/250 μL/well and Lipofectamine 2000 transfection reagent was diluted with Opti-MEM I Reduced Serum Medium to be 4 μL/250 μL/well. The vectors and reagent were softly diffused, and incubated at room temperature for 5 minutes. The vector solution was mixed with Lipofectamine 2000 transfection reagent in equal amounts. In order to form a complex of the vectors and Lipofectamine 2000 transfection reagent, the mixture was incubated at room temperature for 20 minutes, and added at 500 μL/well to the medium of inoculated cells. The treated cells were cultured for 24 hours, inoculated in Poly-D-Lysine coated 96-well plate (356640, BD Biosciences) at a cell density of 7×10^4 cells/100 μL/well, and cultured for another 24 hours. The resultant cells were used in a measurement test of calcium mobilization in the cells.
(3) Evaluation of Agonist Activity on Human FPRL1 (Test of Calcium Mobilization in Cell)
An appropriate amount of each test compound was first weighed, and dissolved to 10^−2 M by addition of dimethyl sulfoxide (DMSO). […] The plate dispensed with compound solutions was set in Flexstation (Molecular Devices, LLC.) until measurement.
Subsequently, 10 mL of assay buffer and 100 μL of probenecid solution (dissolved by addition of 1 mL of assay buffer to a 250 mM stock) were sufficiently mixed and dissolved in Fluo-4 NW dye mix. The medium of cells inoculated on the previous day was removed, the dissolved Fluo-4 NW dye mix was added in an amount of 90 μL/well, and a reaction was caused in the dark at 37° C. for 45 minutes. The cells after the reaction and chips for addition of the compound were set in Flexstation, and variation in fluorescence intensity over time after addition of the compound was measured [amount of added compound=10 μL (final concentration: 10^−5 M to 10^−12 M), excitation wavelength: 485 nm, measured wavelength: 525 nm, 1.5 sec×54 read]. A value was calculated by subtracting a base value during addition of DMSO from the maximum value of relative fluorescence unit, and analyzed. All the measurement data were analyzed with Prism 4 that was a data analysis tool.
Background: Calcium assays in cells follow changes in intracellular calcium, usually with a dye or a luminescent sensor.
As for `COc1ccc([C@@H]2COC[C@@H]2NC(=O)Nc2ccc(Cl)cc2)cc1` (racemic) [Example 1-1, (±)-cis-1-(4-Chlorophenyl)-3-[4-(4-methoxyphenyl)tetrahydrofuran-3-yl]urea], the EC50 (as a rule, the concentration needed to bring the measured effect to its halfway point) is 0.25 nM.

With `COc1ccc([C@@H]2COC[C@@H]2NC(=O)Nc2ccc(F)c(F)c2)cc1` (racemic) [Example 1-5, (±)-cis-1-(3,4-difluorophenyl)-3-[4-(4-methoxyphenyl)tetrahydrofuran-3-yl]urea], the EC50 is 12 nM.

Consider `COc1ccc([C@@H]2COC[C@@H]2NC(=O)Nc2ccc(C#N)cc2)cc1` (racemic) [Example 1-6, (±)-cis-1-(4-cyanophenyl)-3-[4-(4-methoxyphenyl)-tetrahydrofuran-3-yl]urea], for which the EC50 turned out to be 10 nM.

As for `COc1ccc([C@@H]2COC[C@@H]2NC(=O)Nc2ccc(Cl)s2)cc1` (racemic) [Example 1-7, (±)-cis-1-(5-chlorothiophen-2-yl)-3-[4-(4-methoxyphenyl)-tetrahydrofuran-3-yl]urea], the EC50 came out at 5.2 nM.

For the compound `COc1cc(F)c([C@@H]2COC[C@@H]2NC(=O)Nc2ccc(F)cc2)c(F)c1` (racemic) [Example 1-8, (±)-cis-1-[4-(2,6-difluoro-4-methoxyphenyl)-tetrahydrofuran-3-yl]-3-(4-fluorophenyl)urea], the EC50 came to 3.78 nM.

As for `COc1ccc([C@@H]2COC[C@H]2NC(=O)Nc2ccc(Cl)cc2)cc1` (racemic) [Example 1-9, (±)-trans-1-(4-chlorophenyl)-3-[4-(4-methoxyphenyl)tetrahydrofuran-3-yl]urea], the EC50 was found to be 2.3 nM.

Regarding `COc1ccc(C2CS(=O)(=O)CC2NC(=O)Nc2ccc(Cl)cc2)cc1` (racemic) [Example 1-10, (±)-1-(4-chlorophenyl)-3-[4-(4-methoxyphenyl)-1,1-dioxideterrahydrothiophen-3-yl]urea], the 50% effective concentration (EC50) amounted to 0.29 nM.

Turning to `COc1ccc([C@@H]2CCNC(=O)C2NC(=O)Nc2ccc(Cl)cc2)cc1` (mixture of isomers) [Example 1-11, (±)-trans-1-(4-chlorophenyl)-3-[4-(4-methoxyphenyl)-2-oxopiperidin-3-yl]urea], the EC50 is 0.11 nM.

Take `O=C(Nc1ccc(F)cc1)NC1COC[C@H]1c1ccc(Cl)cc1` (mixture of isomers) [Example 5-1, (±)-cis-1-[4-(4-Chlorophenyl)tetrahydrofuran-3-yl]-3-(4-fluorophenyl)urea]: the EC50 was 14 nM.

Consider `COc1ccc(C2COC(=O)N2NC(=O)Nc2ccc(Cl)cc2)cc1` (racemic) [Example 5-4, (±)-1-(4-chlorophenyl)-3-[4-(4-methoxyphenyl)-2-oxooxazolidin-3-yl]urea], for which the EC50 came out at 2.6 nM.

Regarding `COc1ccc([C@@H]2CC(=O)N[C@H]2NC(=O)Nc2ccc(F)cc2)cc1` (racemic) [Example 6-1, (±)-trans-1-(4-Fluorophenyl)-3-[3-(4-methoxyphenyl)-5-oxopyrrolidin-2-yl]urea], the EC50 is 5.6 nM.

As to `COc1ccc([C@@H]2CN3C(=O)CON=C3[C@H]2NC(=O)Nc2ccc(F)cc2)cc1` (relative stereo) [Example 10-1, 1-(4-Fluorophenyl)-3-[(7R*,8S*)-7-(4-methoxyphenyl)-4-oxo-4,6,7,8-tetrahydro-3H-pyrrolo[2,1-c][1,2,4]oxadiazin-8-yl]urea], the EC50 amounted to 0.29 nM.

Regarding `COc1cc(F)c([C@@H]2Cn3ccnc3[C@H]2NC(=O)Nc2ccc(F)cc2)c(F)c1` (single isomer, unassigned) [Example 7-2, (−)-1-[(6R*,7S*)-6-(2,6-difluoro-4-methoxyphenyl)-6,7-dihydro-5H-pyrrolo[1,2-a]imidazol-7-yl]-3-(4-fluorophenyl)urea], the EC50 stood at 0.25 nM.

Turning to `COc1ccc([C@@H]2Cn3nnnc3[C@H]2NC(=O)Nc2ccc(F)cc2)cc1` (single isomer, unassigned) [Example 7-3, (−)-1-(4-fluorophenyl)-3-[(6R*,7S*)-6-(4-methoxyphenyl)-6,7-dihydro-5H-pyrrolo[1,2-d]tetrazol-7-yl]urea], the EC50 turned out to be 0.6 nM.

On to `COc1cc(F)c([C@@H]2Cn3nnnc3[C@H]2NC(=O)Nc2ccc(F)cc2)c(F)c1` (single isomer, unassigned) [Example 7-4, (−)-1-[(6R*,7S*)-6-(2,6-difluoro-4-methoxyphenyl)-6,7-dihydro-5H-pyrrolo[1,2-d]tetrazol-7-yl]-3-(4-fluorophenyl)urea], for which the EC50 was determined as 0.36 nM.

As to `O=C(Nc1ccc(F)cc1)N[C@@H]1c2nnnn2C[C@H]1c1cc2c(cc1F)OCC2` (single isomer, unassigned) [Example 7-5, (−)-1-[(6R*,7S*)-6-(6-fluoro-2,3-dihydrobenzofuran-5-yl)-6,7-dihydro-5H-pyrrolo[1,2-d]tetrazol-7-yl]-3-(4-fluorophenyl)urea], the EC50 amounted to 2.5 nM.

`COc1cc(F)c([C@@H]2CN3CCCN=C3[C@H]2NC(=O)Nc2ccc(F)cc2)c(F)c1` (single isomer, unassigned) [Example 7-6, (−)-1-[(7R*,8S*)-7-(2,6-difluoro-4-methoxyphenyl)-2,3,4,6,7,8-hexahydropyrrolo[1,2-a]pyrimidin-8-yl]-3-(4-fluorophenyl)urea]: the EC50 is 0.97 nM.

In the case of `COc1cc(F)c([C@@H]2CN3C(=O)CON=C3[C@H]2NC(=O)Nc2ccc(F)cc2)c(F)c1` (single isomer, unassigned) [Example 8-1, (−)-1-[(7R*,8S*)-7-(2,6-Difluoro-4-methoxyphenyl)-4-oxo-4,6,7,8-tetrahydro-3H-pyrrolo[2,1-c][1,2,4]oxadiazin-8-yl]-3-(4-fluorophenyl)urea], the EC50 worked out at 0.03 nM.

In the case of `COc1cc(F)c([C@@H]2CN3C(=O)CCN=C3[C@H]2NC(=O)Nc2ccc(F)cc2)c(F)c1` (single isomer, unassigned) [Example 9-1, (−)-1-[(7R*,8S*)-7-(2,6-Difluoro-4-methoxyphenyl)-4-oxo-2,3,4,6,7,8-hexahydropyrrolo[1,2-a]pyrimidin-8-yl]-3-(4-fluorophenyl)urea], the EC50 is 0.03 nM.

`COc1cc(F)c([C@@H]2Cn3c(C)nnc3C2NC(=O)Nc2ccc(F)cc2)c(F)c1` (single isomer, unassigned; (-)) [Example 7-1, (−)-1-[(6R*,7S*)-6-(2,6-Difluoro-4-methoxyphenyl)-3-methyl-6,7-dihydro-5H-pyrrolo[2,1-c][1,2,4]triazol-7-yl]-3-(4-fluorophenyl)urea]: the EC50 came out at 0.05 nM.
